Molecules are shown by their SMILES.

`O=[N+]([O-])c1ccc(-c2c(Cl)nc3ncnn3c2NCC(F)(F)F)cc1` registered a melting point of 237 °C.

Values taken from patent US7084146B2 (dated 2006).
